In paper PMC7924852, “The Emericellipsins A–E from an Alkalophilic Fungus Emericellopsis alkalina Show Potent Activity against Multidrug-Resistant Pathogenic Fungi” (Journal of Fungi, 2021) one finds hemolysis, MIC and MFC data, which are given here for two molecules.

As a reminder, the MIC is the lowest concentration found to suppress growth.

The subject of one series is human erythrocytes. Kind of series: Hemolytic activity. The format is cell-based. The settings on record: 20 μM, 1 h, 37 °C, relative to H2O control = 100%, OD 540 nm or 570 nm, triplicate, mean. The protocol: Erythrocytes were isolated from the peripheral blood of healthy donors after incubation at 4 °C for 2–3 h. All the donors are males, 35–38 years old. All of them have approved to collect blood samples, and the authors have permissions filled. All the blood samples have been destroyed after the experiments finished. The red blood cell suspension (100 μL) was pelleted, washed twice with saline, then the pellet was resuspended in 500 μL saline or distilled water (positive control of hemolysis). The compounds were added (final concentration of 20 μM). The samples were incubated for 1 h at 37 °C and centrifuged at 2000 rpm for 1.5 min. The OD of supernatants was measured on a Multiscan spectrophotometer FC (Thermo Scientific, Waltham, MA, USA) at a wavelength of 540 nm. The percent hemolysis was calculated relative to the positive control, taken as 100%.
Erythrocytes were isolated from the human blood: On the day of the study, blood was taken from the donor’s cubital vein into a test tube with an anticoagulant. The blood was incubated at 4 °C for 2‒3 h. A suspension of erythrocytes (100 μL) was diluted with a physiological buffer (pH 7.2) to a total volume of 500 μL. Solutions of the test substances with an initial concentration of […] (DMSO) were diluted with a PBS buffer (1:10). The resulting solutions were introduced into Eppendorf tubes in the amounts required to create the studied concentration (5, 10, or 20 μM). A mixture of PBS with erythrocytes was added to a total volume of 200 μL. The control (C) was a mixture of erythrocytes with H2O (100% of hemolysis). The intact control solution (I) was a mixture of erythrocytes with the PBS and solvent (DMSO). The antibiotic gramicidin S (Gram S) was used as a control sample with active hemolysis. The mixture was incubated for 1 h at 37 °C. The measurement of the optical density of the supernatants was carried out on a BioTek ELx800 automatic microplate photometer (USA) at 570 nm. The optical density of the liquid above the sediment in the control sample with H2O was taken as 100%.

Series [1] has as its system C. tropicalis 156. Briefly: Sensititre YeastOne antifungal susceptibility test. The series is classed as cell-based. The settings on record: Candida tropicalis, 156.
The test system of a further series is A. terreus 497. Briefly: Sensititre YeastOne antifungal susceptibility test. The series is classed as cell-based. The settings on record: Aspergillus terreus, 497.
Series [2] concerns C. krusei 1447. Kind of series: Sensititre YeastOne antifungal susceptibility test. The format is cell-based. The conditions noted are these: Pichia kudriavzevii, 1447.
In a further series the test system is C. laurentii 325m. Briefly: Broth microdilution MIC and MFC (CLSI). The series is classed as cell-based, Cr. laurentii. The settings on record: Papiliotrema laurentii; C. laurentii 325m clinical isolate; RPMI 1640 pH 7.0, 35 °C, 24 h; read-out: MIC. For orientation: In broth dilution the organism is exposed to a series of concentrations in liquid medium.
Series [3] concerns Cryptococcus neoformans 297. Briefly: Sensititre YeastOne antifungal susceptibility test. The settings on record: Cryptococcus neoformans, 297. The format is cell-based.
In a further series the test system is Aspergillus niger 1133m. Briefly: Sensititre YeastOne antifungal susceptibility test. The format is cell-based. The settings on record: Aspergillus niger, 1133M.
A further series relates to Cr. laurentii 325m. Kind of series: Sensititre YeastOne antifungal susceptibility test. The settings on record: Papiliotrema laurentii, 325M. The series is classed as cell-based.
Series [4] deals with C. krusei 1447. Kind of series: Broth microdilution MIC and MFC (CLSI). The format is cell-based. The conditions noted are these: Pichia kudriavzevii.
Series [5] concerns C. parapsilosis 571. Briefly: Sensititre YeastOne antifungal susceptibility test. The series is classed as cell-based. The settings on record: Lodderomyces parapsilosis, 571.
Series [6] deals with Cryptococcus neoformans 297. Kind of series: Broth microdilution MIC and MFC (CLSI). The series is classed as cell-based. The conditions noted are these: Cryptococcus neoformans 297 clinical isolate; RPMI 1640 pH 7.0, 35 °C, 24 h; read-out: MIC.
Series [7] concerns Candida albicans 1402. Kind of series: Broth microdilution MIC and MFC (CLSI). The format is cell-based.
Series [8] deals with C. parapsilosis 571. Kind of series: Broth microdilution MIC and MFC (CLSI). The series is classed as cell-based. The settings on record: Lodderomyces parapsilosis.
Series [9] deals with Candida albicans 1402. Briefly: Sensititre YeastOne antifungal susceptibility test. The series is classed as cell-based. The conditions noted are these: Candida albicans, 1402.
Series [10] deals with C. glabrata 1402. Kind of series: Sensititre YeastOne antifungal susceptibility test. The format is cell-based. The settings on record: Nakaseomyces glabratus, 1402.
Series [11] concerns C. tropicalis 156. Briefly: Broth microdilution MIC and MFC (CLSI). The conditions noted are these: Candida tropicalis. The series is classed as cell-based.
A further series concerns A. fumigatus 390m. Kind of series: Sensititre YeastOne antifungal susceptibility test. The format is cell-based. The settings on record: Aspergillus fumigatus, 390M.
The subject of series [12] is C. glabrata 1402. Kind of series: Broth microdilution MIC and MFC (CLSI). The format is cell-based. The conditions noted are these: Nakaseomyces glabratus.

In brackets after ≈: the same amount, converted by molar mass. Non-standard residues stand in square brackets, D forms with d. Residues, ends and D or L forms follow the SMILES beside them. Orn = NCCC[C@H](N)C(=O)O

With `CC(C)C[C@@H]1NC(=O)[C@H](CCCN)NC(=O)[C@H](C(C)C)NC(=O)[C@@H]2CCCN2C(=O)[C@@H](Cc2ccccc2)NC(=O)[C@H](CC(C)C)NC(=O)[C@H](CCCN)NC(=O)[C@H](C(C)C)NC(=O)[C@@H]2CCCN2C(=O)[C@@H](Cc2ccccc2)NC1=O` [gramicidin S] (cyclo(L[dF]PV[Orn]L[dF]PV[Orn])), the hemolysis with human erythrocytes was found to be 100%.
In the case of `CC[C@H](C)C[C@H](C)CCCCCCCCC(=O)N[C@H]1C[C@@H](O)[C@@H](NCCN)NC(=O)[C@@H]2[C@@H](O)CCN2C(=O)[C@H]([C@H](O)CCN)NC(=O)[C@H]([C@H](O)[C@@H](O)c2ccc(O)cc2)NC(=O)[C@@H]2C[C@@H](O)CN2C(=O)[C@H]([C@@H](C)O)NC1=O` [CAS, Caspofungin], the MIC in the series with C. tropicalis 156 [1] is 0.06 µg/mL (≈ 0.0549 µM); against A. terreus 497, greater than 16 µg/mL; against C. krusei 1447 [2] it was 0.25 µg/mL (≈ 0.229 µM); in the series with C. laurentii 325m, 16 µg/mL (≈ 14.6 µM); in series [3], 16 µg/mL (≈ 14.6 µM); in the series with Aspergillus niger 1133m, greater than 16 µg/mL. In addition, the MIC was 16 µg/mL (≈ 14.6 µM) against Cr. laurentii 325m; 0.25 µg/mL (≈ 0.229 µM) in the series with C. krusei 1447 [4] (C. krusei 1447 clinical isolate, RPMI 1640 pH 7.0, 35 °C, 24 h, read-out: MIC); 1 µg/mL (≈ 0.915 µM) with C. parapsilosis 571 [5]; greater than 64 µg/mL in series [6]; 0.06 µg/mL (≈ 0.0549 µM) with Candida albicans 1402 [7] (Candida albicans 1402 clinical isolate, RPMI 1640 pH 7.0, 35 °C, 24 h, read-out: MIC); 1 µg/mL (≈ 0.915 µM) with C. parapsilosis 571 [8] (C. parapsilosis 571 clinical isolate, RPMI 1640 pH 7.0, 35 °C, 24 h, read-out: MIC). Moreover, the MIC with Candida albicans 1402 [9] is 0.06 µg/mL (≈ 0.0549 µM); in the series on C. glabrata 1402 [10], 0.06 µg/mL (≈ 0.0549 µM); in the series on C. tropicalis 156 [11] (C. tropicalis 156 clinical isolate, RPMI 1640 pH 7.0, 35 °C, 24 h, read-out: MIC), 0.06 µg/mL (≈ 0.0549 µM); with A. fumigatus 390m, greater than 16 µg/mL; in the series with C. glabrata 1402 [12] (C. glabrata 1402 clinical isolate, RPMI 1640 pH 7.0, 35 °C, 24 h, read-out: MIC), 0.06 µg/mL (≈ 0.0549 µM). The MFC in the series on C. krusei 1447 [4] (C. krusei 1447, lowest concentration causing 95% death, read-out: MFC) is 1 µg/mL (≈ 0.915 µM); with Candida albicans 1402 [7] (Candida albicans 1402, lowest concentration causing 95% death, plated on PDA agar, read-out: MFC) it was 0.5 µg/mL (≈ 0.457 µM); with C. parapsilosis 571 [8] (C. parapsilosis 571, lowest concentration causing 95% death, read-out: MFC), 1 µg/mL (≈ 0.915 µM); with C. tropicalis 156 [11] (C. tropicalis 156, lowest concentration causing 95% death, read-out: MFC), 0.5 µg/mL (≈ 0.457 µM); in the series with C. glabrata 1402 [12] (C. glabrata 1402, lowest concentration causing 95% death, read-out: MFC) it was 0.5 µg/mL (≈ 0.457 µM).
